Here are results for 19 molecules from patent publication US7550459B2, “Tetrahydroquinoline analogues as muscarinic agonists” (Acadia Pharmaceuticals, Inc., priority 2001, dated 2009).

For experiment [1], the target named is T1, M2 muscarinic receptor (Homo sapiens, UniProt P08172).
T1 construct: expressed in transfected cells
T1 sequence (P08172 1-466): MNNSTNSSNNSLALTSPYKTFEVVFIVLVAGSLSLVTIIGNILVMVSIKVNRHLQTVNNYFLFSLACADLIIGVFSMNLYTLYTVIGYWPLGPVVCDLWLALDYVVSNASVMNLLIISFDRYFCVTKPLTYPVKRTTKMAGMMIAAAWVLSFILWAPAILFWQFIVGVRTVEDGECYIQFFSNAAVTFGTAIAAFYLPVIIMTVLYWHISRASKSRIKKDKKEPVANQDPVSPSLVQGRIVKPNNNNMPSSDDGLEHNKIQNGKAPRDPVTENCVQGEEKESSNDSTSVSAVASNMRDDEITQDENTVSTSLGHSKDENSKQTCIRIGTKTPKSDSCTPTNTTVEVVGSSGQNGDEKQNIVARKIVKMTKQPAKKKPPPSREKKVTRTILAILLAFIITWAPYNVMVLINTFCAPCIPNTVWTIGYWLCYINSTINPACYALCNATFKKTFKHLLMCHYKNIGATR
Kind of experiment: Receptor Selection and Amplification (R-SAT) assay, cloned M2 receptor. The experiment is classed as cell-based. The arrangement: M2 Eff: scale not given here. An excerpt:
(§1) The EC50 for an agonist is intended to denote the concentration of a compound needed to achieve 50% of a maximal response seen in an in vitro assay such as R-SAT. For inverse agonists, EC50 is intended to denote the concentration of a compound needed to achieve 50% inhibition of an R-SAT response from basal, no compound, levels.
(§2) A particularly convenient functional assay system is the receptor selection and amplification assay (R-SAT assay) in U.S. Pat. No. 5,707,798, which describes a method of screening for bioactive compounds by utilizing the ability of cells transfected with receptor DNA, e.g., coding for the different muscarinic subtypes, to amplify in the presence of a ligand of the receptor. Cell amplification is detected as increased levels of a marker also expressed by the cells.
(§3) Receptor Selection and Amplification (R-SAT) assays were carried out using the cloned M1-M5 receptors essentially as described in: Brauner-Osborne H, Brann M R. Pharmacology of muscarinic acetylcholine receptor subtypes (m1-m5): high throughput assays in mammalian cells. Eur J Pharmacol Jan. 4, 1996;295(1):93-102, and Spalding T A, Trotter C, Skjaerbaek N, Messier T L, Currier E A, Burstein E S, Li D, Hacksell U, Brann M R. Discovery of an ectopic activation site on the M(1) muscarinic receptor. Mol Pharmacol. 2002 June;61(6):1297-302.

The target of experiment [2] is T2, M1 muscarinic receptor (Homo sapiens, UniProt P11229).
T2 construct: expressed in transfected cells
T2 sequence (P11229 1-460): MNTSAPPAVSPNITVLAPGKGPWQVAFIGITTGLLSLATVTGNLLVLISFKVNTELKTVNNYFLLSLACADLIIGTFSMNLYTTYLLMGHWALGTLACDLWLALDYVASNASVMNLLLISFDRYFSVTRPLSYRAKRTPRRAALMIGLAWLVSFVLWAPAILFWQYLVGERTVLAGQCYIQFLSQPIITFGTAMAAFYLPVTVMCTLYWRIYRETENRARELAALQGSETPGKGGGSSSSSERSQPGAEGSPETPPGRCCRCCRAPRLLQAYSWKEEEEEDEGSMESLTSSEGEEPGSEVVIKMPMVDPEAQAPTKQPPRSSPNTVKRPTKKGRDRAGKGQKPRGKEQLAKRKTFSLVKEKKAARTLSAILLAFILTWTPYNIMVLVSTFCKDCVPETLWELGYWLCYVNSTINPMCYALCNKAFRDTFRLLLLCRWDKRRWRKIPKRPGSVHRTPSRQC
Kind of experiment: Receptor Selection and Amplification (R-SAT) assay, cloned M1 receptor. The settings on record: for Emax: read-out: m1 % Efficacy. The arrangement: M1 Eff: scale not given here. The class given is cell-based.
From the text: as §1, §2, §3

Where [3] appears, read: R-SAT, second table (COMPOUND ID series).
Where [4] appears, read: R-SAT, second table (COMPOUND ID series), read-out: M2 pEC50 (converted).
Setting [5] is: R-SAT, second table (COMPOUND ID series), read-out: M1 pEC50 (converted).
The mark [6] stands for this setting: M2 pEC50, R-SAT, second table (COMPOUND ID series).
[7] abbreviates: M1 pEC50, R-SAT, second table (COMPOUND ID series).

Molecules are shown by their SMILES. Read-outs that look alike come from different tables or passages of the source.

Take `O=C1COc2cc(F)c(F)cc2N1CCCN1CCC(OCC2CC2)CC1` [Compound 00262461, 4-[3-(4-Cyclopropylmethoxypiperidin-1-yl)propyl]-6,7-difluoro-4H-benzo[1.4]oxazin-3-one]: the “M2 Eff” value in experiment [1] (setting [3]) is reported as 61. Further, the values for the EC50 in experiment [1] (setting [4]) and in experiment [2] (setting [5]) were 631 nM and 50.1 nM, respectively. The “M1 Eff” value in experiment [2] (setting [3]) is reported as 95.
Consider `CC(CN1CCC(OCC2CCC2)CC1)CN1C(=O)COc2ccccc21` (racemic) [Compound 00262197, 4-[(R,S)-3-(4-Cyclobutylmethoxypiperidin-1-yl)-2-methylpropyl]-4H-benzo[1.4]oxazin-3-one], for which, in experiment [1] (setting [3]), the “M2 Eff” value stood at 28. Also, the EC50 is 2510 nM in experiment [1] (setting [4]) and 158 nM in experiment [2] (setting [5]). In addition, in experiment [2] (setting [3]), the “M1 Eff” value is 122.
Taken in the same sequence, the figures for `O=C1CCc2cc(F)c(F)cc2N1CCCN1CCC(OCC2CC2)CC1` [Compound 00262272, 1-[3-(4-Cyclopropylmethoxypiperidin-1-yl)propyl]-6,7-difluoro-3,4-dihydro-1H-quinolin-2-one] were 57, 1000 nM, 50.1 nM and 94.
For `O=C1COc2ccccc2N1CCCN1CCC(OCC2CC2)CC1` [Compound 00262922, 4-[3-(4-Cyclopropylmethoxypiperidin-1-yl)propyl]-4H-benzo[1.4]oxazin-3-one] the same measures were 40, 1260 nM, 79.4 nM and 84.
With `C[C@@H](CN1C(=O)COc2ccccc21)CN1[C@@H]2CC[C@H]1CC(=NOCC1CC1)C2` (mixture of isomers) [Compound 00261537, 4-[3-(3-Cyclopropylmethoxyimino-8-aza-bicyclo[3.2.1]oct-8-yl)-2(R)-methyl-propyl]-4H-benzo[1,4]oxazin-3-one], the “M2 Eff” value in experiment [1] (setting [3]) amounted to 58. The EC50 is 794 nM in experiment [1] (setting [4]) and 126 nM in experiment [2] (setting [5]). The “M1 Eff” value in experiment [2] (setting [3]) stood at 126.
Turning to `CCc1cccc2c1OCC(=O)N2CC(C)CN1CCC(OCC2CC2)CC1` (racemic) [Compound 00262867, (R,S)-4-[3-(4-Cyclopropylmethoxypiperidin-1-yl)-2-methylpropyl]-8-ethyl-4H-benzo[1,4]oxazin-3-one], the “M2 Eff” value in experiment [1] (setting [3]) was determined as 32. The EC50 was 1580 nM in experiment [1] (setting [4]) and 79.4 nM in experiment [2] (setting [5]). For the same molecule, the “M1 Eff” value in experiment [2] (setting [3]) is 104.
Regarding `O=C1COc2cc(F)ccc2N1CCCN1CCC(OCC2CC2)CC1` [Compound 00262469, 4-[3-(4-Cyclopropylmethoxypiperidin-1-yl)propyl]-7-fluoro-4H-benzo[1,4]oxazin-3-one], the “M2 Eff” value in experiment [1] (setting [3]) was 73. The EC50 in experiment [1] (setting [4]) was 501 nM; in experiment [2] (setting [5]) it was 63.1 nM. In experiment [2] (setting [3]), the “M1 Eff” value is on record as 98.
Turning to `O=C1COc2ccc(F)cc2N1CCCN1CCC(OCC2CC2)CC1` [Compound 00262635, 4-[3-(4-Cyclopropylmethoxypiperidin-1-yl)propyl]-6-fluoro-4H-benzo[1.4]oxazin-3-one], the “M2 Eff” value in experiment [1] (setting [3]) was 53. The EC50 is 794 nM in experiment [1] (setting [4]) and 63.1 nM in experiment [2] (setting [5]). In addition, the “M1 Eff” value in experiment [2] (setting [3]) amounted to 96.
Consider `O=C1COc2cc(F)c(F)cc2N1CCCN1[C@@H]2CC[C@H]1C[C@@H](OCC1CC1)C2` [Compound 00262569, 4-[3-(3a-Cyclopropylmethoxy-8-azabicyclo[3.2.1]oct-8-yl)propyl]-6.7-difluoro-4H-benzo[1.4]oxazin-3-one], for which the results for the EC50 in experiment [1] (setting [6]) and in experiment [2] (setting [7]) were 50.1 nM and 6.31 nM, respectively. Moreover, in experiment [1] (setting [3]), the “M2 Eff” value was 42. In addition, the “M1 Eff” value in experiment [2] (setting [3]) amounted to 97.
As for `O=C1COc2cc(F)ccc2N1CCCN1[C@@H]2CC[C@H]1C[C@@H](OCC1CC1)C2` [Compound 00262571, 4-[3-(3a-Cyclopropylmethoxy-8-azabicyclo[3.2.1]oct-8-yl)propyl]-7-fluoro-4H-benzo[1.4]oxazin-3-one], the EC50 in experiment [1] (setting [6]) was 39.8 nM; in experiment [2] (setting [7]), 12.6 nM. For the same molecule, in experiment [1] (setting [3]), the “M2 Eff” value is 45. Further, the “M1 Eff” value in experiment [2] (setting [3]) amounted to 81.
Regarding `O=C1CCc2cc(F)c(F)cc2N1CCCN1[C@@H]2CC[C@H]1C[C@@H](OCC1CC1)C2` [Compound 00262572, 1-[3-(3a-Cyclopropylmethoxy-8-aza-bicyclo[3.2.1]oct-8-yl)propyl]-6,7-difluoro-3,4-dihydro-1H-quinolin-2-one], the EC50 in experiment [1] (setting [6]) was 200 nM; in experiment [2] (setting [7]), 10 nM. The “M2 Eff” value in experiment [1] (setting [3]) turned out to be 31. Further, the “M1 Eff” value in experiment [2] (setting [3]) is 82.
`COC(CN1CCC(OCC2CC2)CC1)CN1C(=O)COc2cc(F)ccc21` (racemic) [Compound 00262784, (R,S)-4-[3-(4-Cyclopropylmethoxypiperidin-1-yl)-2-methoxypropyl]-7-fluoro-4H-benzo[1.4]oxazin-3-one]: the “M2 Eff” value in experiment [1] (setting [3]) is given as 71. The EC50 in experiment [1] (setting [4]) was 2000 nM; in experiment [2] (setting [5]), 79.4 nM. In experiment [2] (setting [3]), the “M1 Eff” value came to 94.
For `CCCC[C@]1(O)C[C@H]2CC[C@@H](C1)N2C[C@@H](C)CN1C(=O)COc2ccccc21` [Compound 00261478, (R)-4-[3-(3β-Butyl-3a-hydroxy-8-aza-bicyclo[3.2.1]oct-8-yl)-2-methyl-propyl]-1H-benzo[1,4]oxazin-3-one], the “M2 Eff” value in experiment [1] (setting [3]) is 40. For the same molecule, the EC50 is 1260 nM in experiment [1] (setting [4]) and 1580 nM in experiment [2] (setting [5]). In addition, the “M1 Eff” value in experiment [2] (setting [3]) is listed as 105.
`CCCC=C1CC2CCC(C1)N2CCCN1C(=O)COc2ccccc21` [Compound 81MF24, 4-[3-(3-Butylidene-8-aza-bicyclo[3.2.1]oct-8-yl)-propyl]-4H-benzo[1,4]oxazin-3-one]: the EC50 in experiment [1] (m2 pEC50, R-SAT, cloned m2 receptor) was 100 nM; in experiment [2] (m1 pEC50, R-SAT, cloned m1 receptor), 15.8 nM. Further, the results for the Emax in experiment [1] (read-out: m2 % Efficacy) and in experiment [2] were 70% and 96%, respectively.
Take `CCOCCC1CC2CCC(C1)N2CC(C)CN1C(=O)COc2ccccc21` (single isomer, unassigned) [Compound 00262998]: the values for the EC50 in experiment [1] (setting [6]) and in experiment [2] (setting [7]) were 398 nM and 7.94 nM, respectively. In experiment [1] (setting [3]), the “M2 Eff” value stood at 56. Besides, the “M1 Eff” value in experiment [2] (setting [3]) is 102.
On to `COCCC1CC2CCC(C1)N2CC(C)CN1C(=O)COc2ccccc21` [Compound 00263025, (R)-4-{3-[3a-(2-Methoxyethyl)-8-azabicyclo[3.2.1]oct-8-yl]-2-methylpropyl}-4H-benzo[1.4]oxazin-3-one], for which the figures for the EC50 in experiment [1] (setting [6]) and in experiment [2] (setting [7]) were 158 nM and 3.16 nM, respectively. Also, the “M2 Eff” value in experiment [1] (setting [3]) is 123. Further, the “M1 Eff” value in experiment [2] (setting [3]) came to 116.
With `CC(CN1CCC(OC(=O)OCC2CCC2)CC1)CN1C(=O)COc2ccccc21` (racemic) [Compound 00262198, carbonic acid cyclobutylmethyl ester 1-[(R,S)-2-methyl-3-(3-oxo-2,3-dihydrobenzo[1.4]oxazin-4-yl)propyl]piperidine-4-yl ester], the “M1 Eff” value in experiment [2] (setting [3]) came out at 48. For the same molecule, the EC50 in experiment [2] (setting [5]) is 3980 nM.
With `O=C1COc2c(F)cc(F)cc2N1CCCN1CCC(OCC2CC2)CC1` [Compound 00262874], the “M1 Eff” value in experiment [2] (setting [3]) amounted to 87. Also, in experiment [2] (setting [5]), the EC50 is 631 nM.
With `CCCCC1CCN(CCCN2C(=O)COc3ccc(C(C)=O)cc32)CC1` [Compound 64LHY89-5, 6-Acetyl-4-[3-(4-butyl-piperidin-1-yl)-propyl]-4H-benzo[1,4]oxazin-3-one], the Emax in experiment [2] (R-SAT, cloned m1 receptor) amounted to 45%. In experiment [2] (R-SAT, cloned m1 receptor, read-out: m1 pEC50 (converted)), the EC50 is 2510 nM.
